Data as given in publication PMC10412597, “Small molecule branched-chain ketoacid dehydrogenase kinase (BDK) inhibitors with opposing effects on BDK protein levels” (Nature Communications, 2023).

Legend:
PPAR-gamma = target: T1, PPAR-gamma (Homo sapiens, UniProt P37231); design: Cerep Bioprint off-target panel, ligand binding inhibition; settings: binder
T1 construct: gene PPARG
T1 sequence (P37231 1-505): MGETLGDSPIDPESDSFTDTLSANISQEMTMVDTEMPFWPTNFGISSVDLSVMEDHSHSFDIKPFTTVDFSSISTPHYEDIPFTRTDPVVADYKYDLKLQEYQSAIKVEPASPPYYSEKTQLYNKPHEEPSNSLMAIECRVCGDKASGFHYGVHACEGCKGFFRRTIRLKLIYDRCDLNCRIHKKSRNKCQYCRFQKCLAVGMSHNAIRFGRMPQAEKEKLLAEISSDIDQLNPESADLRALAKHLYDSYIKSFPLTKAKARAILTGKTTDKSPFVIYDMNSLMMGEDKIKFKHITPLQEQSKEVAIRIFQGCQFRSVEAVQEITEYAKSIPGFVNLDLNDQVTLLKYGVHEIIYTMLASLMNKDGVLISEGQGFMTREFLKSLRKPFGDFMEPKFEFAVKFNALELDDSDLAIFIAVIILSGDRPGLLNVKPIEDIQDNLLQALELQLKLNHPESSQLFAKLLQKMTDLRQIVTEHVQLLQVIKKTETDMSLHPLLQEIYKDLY
Protocol: (§1) To discover a potent and selective BDK inhibitor, a subset of the Pfizer compound collection was screened. […] Off target activity was assessed in both CEREP and kinase panels (Supplementary Tables 2, 3).

Androgen Receptor = target: T2, Androgen Receptor (Homo sapiens, UniProt P10275); design: Cerep Bioprint off-target panel, ligand binding inhibition; settings: binder
T2 construct: gene AR
Protocol: as §1

GABAa1 Receptor = target: T3, GABAa1 Receptor (Homo sapiens, UniProt P14867+P18507+P47870); design: Cerep Bioprint off-target panel, ligand binding inhibition; settings: binder
T3 construct: gene GABRA1; alpha1
Protocol: as §1

[1] = target: T4, Nicotinic Acetylcholine Receptor (alpha4, beta2 subunit containing) (Homo sapiens, UniProt P17787+P43681); design: Cerep Bioprint off-target panel, ligand binding inhibition; settings: binder
T4 construct: gene CHRNB2
Protocol: as §1

[2] = target: T5, Norepinephrine Transporter (Homo sapiens, UniProt P23975); design: Cerep Bioprint off-target panel, ligand binding inhibition; settings: binder
T5 construct: gene SLC6A2
Protocol: as §1

Glucocorticoid Receptor = target: T6, Glucocorticoid Receptor (Homo sapiens, UniProt P04150); design: Cerep Bioprint off-target panel, ligand binding inhibition; settings: binder
T6 construct: gene NR3C1
Protocol: as §1

Choline Transporter = target: T7, Choline Transporter (Homo sapiens, UniProt Q9GZV3); design: Cerep Bioprint off-target panel, ligand binding inhibition; settings: binder
T7 construct: gene SLC5A7
Protocol: as §1

Serotonin Transporter = target: T8, Serotonin Transporter (Homo sapiens, UniProt P31645); design: Cerep Bioprint off-target panel, ligand binding inhibition; settings: binder
T8 construct: gene SLC6A4
Protocol: as §1

Serotonin 5-HT3 = target: T9, Serotonin 5-HT3 (Homo sapiens, UniProt P46098); design: Cerep Bioprint off-target panel, ligand binding inhibition; settings: binder
T9 construct: gene HTR3A
Protocol: as §1

Dopamine Transporter = target: T10, Dopamine Transporter (Homo sapiens, UniProt Q01959); design: Cerep Bioprint off-target panel, ligand binding inhibition; settings: binder
T10 construct: gene SLC6A3
Protocol: as §1

Kdr Kinase (VEGFR2) = Kdr Kinase (VEGFR2) (Homo sapiens, UniProt P35968); test: biochemical; design: Cerep Bioprint off-target panel, enzyme or kinase inhibition
Protocol: as §1

Cannabinoid CB1 = target: T11, Cannabinoid CB1 (Homo sapiens, UniProt P21554); test: cell-based; design: Cerep Bioprint off-target panel, functional receptor agonism or antagonism
T11 construct: gene CNR1
Protocol: as §1

T6 sequence (P04150 whole entry): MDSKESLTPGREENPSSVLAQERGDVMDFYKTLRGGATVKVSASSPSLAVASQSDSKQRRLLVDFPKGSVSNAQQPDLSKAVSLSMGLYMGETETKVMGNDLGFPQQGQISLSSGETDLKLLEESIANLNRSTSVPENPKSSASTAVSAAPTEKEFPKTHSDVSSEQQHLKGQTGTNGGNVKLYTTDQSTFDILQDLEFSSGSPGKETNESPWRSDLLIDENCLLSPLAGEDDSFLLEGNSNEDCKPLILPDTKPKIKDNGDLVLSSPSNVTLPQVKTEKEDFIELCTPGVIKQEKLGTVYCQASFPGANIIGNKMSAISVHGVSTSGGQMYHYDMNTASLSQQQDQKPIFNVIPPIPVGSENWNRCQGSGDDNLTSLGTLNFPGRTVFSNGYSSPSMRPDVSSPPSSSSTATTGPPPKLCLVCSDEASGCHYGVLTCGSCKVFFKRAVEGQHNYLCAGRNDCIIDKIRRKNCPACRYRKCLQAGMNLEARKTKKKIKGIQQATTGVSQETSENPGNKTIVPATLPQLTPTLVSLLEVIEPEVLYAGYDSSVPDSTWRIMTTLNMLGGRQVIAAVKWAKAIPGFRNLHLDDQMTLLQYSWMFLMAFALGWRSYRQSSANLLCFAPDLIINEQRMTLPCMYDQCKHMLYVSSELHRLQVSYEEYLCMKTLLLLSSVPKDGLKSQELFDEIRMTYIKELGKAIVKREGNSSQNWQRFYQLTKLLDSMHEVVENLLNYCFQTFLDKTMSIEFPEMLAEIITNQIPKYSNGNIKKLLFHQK
T8 sequence (P31645 whole entry): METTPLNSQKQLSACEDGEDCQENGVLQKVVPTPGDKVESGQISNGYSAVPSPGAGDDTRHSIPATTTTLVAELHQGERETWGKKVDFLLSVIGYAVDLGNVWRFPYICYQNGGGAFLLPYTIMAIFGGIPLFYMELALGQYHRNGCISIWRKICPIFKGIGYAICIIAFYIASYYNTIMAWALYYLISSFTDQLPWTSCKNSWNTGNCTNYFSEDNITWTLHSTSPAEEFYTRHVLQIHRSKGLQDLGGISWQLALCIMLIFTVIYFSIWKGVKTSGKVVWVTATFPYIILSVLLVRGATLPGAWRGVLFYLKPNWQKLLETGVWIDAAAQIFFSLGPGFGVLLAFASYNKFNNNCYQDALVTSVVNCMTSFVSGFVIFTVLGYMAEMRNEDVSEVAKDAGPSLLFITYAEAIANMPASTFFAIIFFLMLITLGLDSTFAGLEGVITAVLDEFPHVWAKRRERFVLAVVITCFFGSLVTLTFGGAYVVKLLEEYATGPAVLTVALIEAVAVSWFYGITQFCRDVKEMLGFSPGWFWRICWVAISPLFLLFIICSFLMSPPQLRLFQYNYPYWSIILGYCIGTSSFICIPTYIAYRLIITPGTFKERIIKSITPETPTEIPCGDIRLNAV
T7 sequence (Q9GZV3 whole entry): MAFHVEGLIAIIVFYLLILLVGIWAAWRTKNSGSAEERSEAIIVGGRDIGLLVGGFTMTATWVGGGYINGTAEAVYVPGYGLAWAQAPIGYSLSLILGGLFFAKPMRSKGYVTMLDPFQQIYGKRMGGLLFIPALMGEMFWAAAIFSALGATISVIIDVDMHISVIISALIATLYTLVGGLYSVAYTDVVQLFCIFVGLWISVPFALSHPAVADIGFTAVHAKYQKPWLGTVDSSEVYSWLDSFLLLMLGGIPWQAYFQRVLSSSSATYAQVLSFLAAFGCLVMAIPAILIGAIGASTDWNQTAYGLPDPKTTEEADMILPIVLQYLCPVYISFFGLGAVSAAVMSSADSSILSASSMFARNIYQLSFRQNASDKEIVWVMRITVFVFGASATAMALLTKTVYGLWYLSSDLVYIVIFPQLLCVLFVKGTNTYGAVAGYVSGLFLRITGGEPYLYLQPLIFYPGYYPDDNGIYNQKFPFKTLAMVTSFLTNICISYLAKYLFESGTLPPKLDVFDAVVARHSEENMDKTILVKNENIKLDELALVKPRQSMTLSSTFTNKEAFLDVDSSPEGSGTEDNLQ
T5 sequence (P23975 whole entry): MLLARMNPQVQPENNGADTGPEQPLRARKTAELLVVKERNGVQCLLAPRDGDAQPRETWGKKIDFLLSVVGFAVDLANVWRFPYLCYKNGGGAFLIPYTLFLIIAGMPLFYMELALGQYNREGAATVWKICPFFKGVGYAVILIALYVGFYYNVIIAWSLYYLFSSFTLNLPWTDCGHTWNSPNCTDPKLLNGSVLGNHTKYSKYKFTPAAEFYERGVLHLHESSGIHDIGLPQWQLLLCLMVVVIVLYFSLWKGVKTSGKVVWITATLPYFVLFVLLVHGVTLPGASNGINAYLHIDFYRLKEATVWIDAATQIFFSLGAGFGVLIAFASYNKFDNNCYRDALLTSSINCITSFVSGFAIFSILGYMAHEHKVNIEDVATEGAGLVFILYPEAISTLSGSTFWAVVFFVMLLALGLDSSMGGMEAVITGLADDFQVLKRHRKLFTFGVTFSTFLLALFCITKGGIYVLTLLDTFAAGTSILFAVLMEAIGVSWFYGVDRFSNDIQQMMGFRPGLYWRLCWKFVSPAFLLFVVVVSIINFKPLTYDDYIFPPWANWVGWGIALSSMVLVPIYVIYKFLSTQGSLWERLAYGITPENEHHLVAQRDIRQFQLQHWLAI
T10 sequence (Q01959 whole entry): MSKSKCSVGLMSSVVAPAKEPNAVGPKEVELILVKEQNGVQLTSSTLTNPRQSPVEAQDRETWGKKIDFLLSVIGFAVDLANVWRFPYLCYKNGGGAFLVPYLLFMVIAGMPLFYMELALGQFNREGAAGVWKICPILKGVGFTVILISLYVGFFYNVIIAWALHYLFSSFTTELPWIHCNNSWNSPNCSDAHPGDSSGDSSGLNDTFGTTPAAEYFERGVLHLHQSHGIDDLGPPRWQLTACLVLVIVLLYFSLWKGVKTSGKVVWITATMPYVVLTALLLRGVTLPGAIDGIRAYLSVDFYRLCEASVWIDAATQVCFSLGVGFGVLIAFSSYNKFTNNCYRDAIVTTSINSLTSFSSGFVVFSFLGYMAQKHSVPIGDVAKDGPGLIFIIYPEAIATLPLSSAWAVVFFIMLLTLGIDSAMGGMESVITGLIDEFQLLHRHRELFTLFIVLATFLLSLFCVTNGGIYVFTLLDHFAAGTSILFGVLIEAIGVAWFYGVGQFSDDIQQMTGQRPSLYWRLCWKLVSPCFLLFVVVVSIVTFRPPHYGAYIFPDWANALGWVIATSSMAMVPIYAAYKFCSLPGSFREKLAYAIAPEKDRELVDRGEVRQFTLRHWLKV
T9 sequence (P46098 whole entry): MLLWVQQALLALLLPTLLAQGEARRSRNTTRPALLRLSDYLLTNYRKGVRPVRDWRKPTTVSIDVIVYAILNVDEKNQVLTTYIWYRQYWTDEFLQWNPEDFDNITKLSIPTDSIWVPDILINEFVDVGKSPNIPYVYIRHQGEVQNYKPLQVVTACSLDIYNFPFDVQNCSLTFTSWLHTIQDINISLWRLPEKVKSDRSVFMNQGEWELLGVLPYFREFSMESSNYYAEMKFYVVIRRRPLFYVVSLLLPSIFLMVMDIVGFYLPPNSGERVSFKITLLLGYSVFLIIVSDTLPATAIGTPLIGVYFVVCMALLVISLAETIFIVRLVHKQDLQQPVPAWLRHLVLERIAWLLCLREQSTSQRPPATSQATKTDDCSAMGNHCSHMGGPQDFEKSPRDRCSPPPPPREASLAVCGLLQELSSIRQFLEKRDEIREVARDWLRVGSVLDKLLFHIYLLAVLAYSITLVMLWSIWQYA
T2 sequence (P10275 whole entry): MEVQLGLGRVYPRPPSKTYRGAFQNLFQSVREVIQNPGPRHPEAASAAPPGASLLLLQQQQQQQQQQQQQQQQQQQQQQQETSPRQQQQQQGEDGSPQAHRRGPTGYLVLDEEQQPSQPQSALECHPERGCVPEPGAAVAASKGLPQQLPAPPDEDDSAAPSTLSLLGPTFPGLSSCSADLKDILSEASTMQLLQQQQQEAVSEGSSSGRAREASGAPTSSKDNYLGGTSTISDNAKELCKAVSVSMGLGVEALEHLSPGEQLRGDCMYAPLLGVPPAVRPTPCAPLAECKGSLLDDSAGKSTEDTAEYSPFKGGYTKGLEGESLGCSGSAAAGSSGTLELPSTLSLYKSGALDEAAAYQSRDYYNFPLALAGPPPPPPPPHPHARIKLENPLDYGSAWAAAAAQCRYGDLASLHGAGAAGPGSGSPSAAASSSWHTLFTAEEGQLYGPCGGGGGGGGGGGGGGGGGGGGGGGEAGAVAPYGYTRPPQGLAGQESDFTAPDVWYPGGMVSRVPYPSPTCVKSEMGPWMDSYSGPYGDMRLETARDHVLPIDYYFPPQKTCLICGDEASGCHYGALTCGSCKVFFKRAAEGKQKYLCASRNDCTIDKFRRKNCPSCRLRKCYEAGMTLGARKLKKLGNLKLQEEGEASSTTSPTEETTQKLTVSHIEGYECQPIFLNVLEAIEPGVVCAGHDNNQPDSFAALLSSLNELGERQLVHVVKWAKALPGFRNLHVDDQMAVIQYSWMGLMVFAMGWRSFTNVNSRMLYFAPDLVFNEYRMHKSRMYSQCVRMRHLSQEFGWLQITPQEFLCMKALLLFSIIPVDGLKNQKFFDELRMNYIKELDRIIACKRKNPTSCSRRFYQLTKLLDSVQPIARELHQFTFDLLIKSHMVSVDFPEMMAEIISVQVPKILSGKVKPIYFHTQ

## CCC1(COc2ccc(-c3csc(-c4ccccc4C(=O)O)n3)cn2)CC1 [PF-07247685, 2-(4-{6-[(1-ethylcyclopropyl)methoxy]pyridin-3-yl}-1,3-thiazol-2-yl)benzoic acid]
PPAR-gamma; 10 µM
  % Inhibition (binding) PF-07247685: 21%
Androgen Receptor; 10 µM
  % Inhibition (binding) PF-07247685: -8%
GABAa1 Receptor; 10 µM
  % Inhibition (binding) PF-07247685: -21%
[1]; 10 µM
  % Inhibition (binding) PF-07247685: -4%
[2]; 10 µM
  % Inhibition (binding) PF-07247685: 6%
Glucocorticoid Receptor; 10 µM
  % Inhibition (binding) PF-07247685: 0%
Choline Transporter; 10 µM
  % Inhibition (binding) PF-07247685: -12%
Serotonin Transporter; 10 µM
  % Inhibition (binding) PF-07247685: 2%
Serotonin 5-HT3; 10 µM
  % Inhibition (binding) PF-07247685: 0%
Dopamine Transporter; 10 µM
  % Inhibition (binding) PF-07247685: -1%

## O=C(O)c1sc2cc(F)sc2c1Cl [PF-07208254, 3-chloro-5-fluorothieno[3,2-b]thiophene-2-carboxylic acid]
Kdr Kinase (VEGFR2)
  IC50: 76 µM
Cannabinoid CB1
  EC50: 180 µM
PPAR-gamma; 100 µM
  % Inhibition (binding) PF-07208254: 62%
Androgen Receptor; 100 µM
  % Inhibition (binding) PF-07208254: -4%
GABAa1 Receptor; 100 µM
  % Inhibition (binding) PF-07208254: -12%
[1]; 100 µM
  % Inhibition (binding) PF-07208254: -6%
[2]; 100 µM
  % Inhibition (binding) PF-07208254: -15%
Glucocorticoid Receptor; 100 µM
  % Inhibition (binding) PF-07208254: 4%
Choline Transporter; 100 µM
  % Inhibition (binding) PF-07208254: -15%
Serotonin Transporter; 100 µM
  % Inhibition (binding) PF-07208254: -3%
Serotonin 5-HT3; 100 µM
  % Inhibition (binding) PF-07208254: -14%
Dopamine Transporter; 100 µM
  % Inhibition (binding) PF-07208254: 7%
